Here are results for 30 compounds from patent US10758534B2 (Vertex Pharmaceuticals Incorporated, priority 2014, dated 2020).

For orientation: EC30 means the point of the concentration-response curve where the effect stands at 30%.

In one test the target is T1, F508del (Homo sapiens, UniProt P13569, DEL508-508).
T1 construct: expressed in transfected cells
T1 sequence (P13569 with tags, fused parts or gaps DEL508-508): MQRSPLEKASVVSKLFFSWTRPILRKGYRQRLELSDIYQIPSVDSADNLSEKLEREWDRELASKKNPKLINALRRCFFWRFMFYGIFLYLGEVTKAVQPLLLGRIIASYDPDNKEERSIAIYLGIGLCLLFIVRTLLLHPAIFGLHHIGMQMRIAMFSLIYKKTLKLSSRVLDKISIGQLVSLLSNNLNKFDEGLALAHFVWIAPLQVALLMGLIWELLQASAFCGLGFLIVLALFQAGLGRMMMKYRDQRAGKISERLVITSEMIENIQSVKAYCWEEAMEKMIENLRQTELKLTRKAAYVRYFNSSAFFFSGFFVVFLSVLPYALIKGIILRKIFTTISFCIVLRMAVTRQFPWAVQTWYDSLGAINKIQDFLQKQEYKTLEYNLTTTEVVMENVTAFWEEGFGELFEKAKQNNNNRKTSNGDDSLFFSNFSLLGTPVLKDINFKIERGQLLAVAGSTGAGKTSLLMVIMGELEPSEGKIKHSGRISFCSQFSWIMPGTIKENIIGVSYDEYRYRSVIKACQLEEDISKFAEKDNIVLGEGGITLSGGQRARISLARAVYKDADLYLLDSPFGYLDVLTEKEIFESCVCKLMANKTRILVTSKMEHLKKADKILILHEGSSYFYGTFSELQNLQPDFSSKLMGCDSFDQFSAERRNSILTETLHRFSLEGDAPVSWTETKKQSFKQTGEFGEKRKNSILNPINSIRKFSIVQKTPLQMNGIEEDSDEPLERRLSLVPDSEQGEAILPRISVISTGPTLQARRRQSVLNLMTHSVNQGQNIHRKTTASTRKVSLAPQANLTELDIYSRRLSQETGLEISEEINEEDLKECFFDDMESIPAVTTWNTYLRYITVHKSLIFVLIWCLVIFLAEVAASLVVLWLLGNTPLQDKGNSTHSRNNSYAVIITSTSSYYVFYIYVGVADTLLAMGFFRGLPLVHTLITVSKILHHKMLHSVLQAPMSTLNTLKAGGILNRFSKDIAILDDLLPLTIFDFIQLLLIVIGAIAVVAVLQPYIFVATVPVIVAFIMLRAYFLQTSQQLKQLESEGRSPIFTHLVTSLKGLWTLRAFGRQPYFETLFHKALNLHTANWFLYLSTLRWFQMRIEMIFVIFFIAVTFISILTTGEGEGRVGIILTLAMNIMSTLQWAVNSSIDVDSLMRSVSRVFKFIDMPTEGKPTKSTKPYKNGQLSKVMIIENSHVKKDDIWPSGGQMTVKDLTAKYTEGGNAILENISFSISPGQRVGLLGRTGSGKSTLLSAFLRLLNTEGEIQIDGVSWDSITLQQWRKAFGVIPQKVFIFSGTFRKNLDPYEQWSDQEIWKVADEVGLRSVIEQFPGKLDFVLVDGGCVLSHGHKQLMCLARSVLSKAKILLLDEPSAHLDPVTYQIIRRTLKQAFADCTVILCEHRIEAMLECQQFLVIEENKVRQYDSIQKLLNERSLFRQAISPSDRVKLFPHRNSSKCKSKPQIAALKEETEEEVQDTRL
Description: Protocol 2: FRET membrane potential optical assay (VIPR), identification of correction compounds. It counts as cell-based. Particulars: F508del CFTR modulator activity; compounds of Table 1; read-out: EC30. In short, it runs like this: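 NIH3T3 mouse fibroblasts stably expressing F508del-CFTR incubated with compound 16 h at 37 °C in serum-free medium, then loaded with CC2-DMPE/DiSBAC2(3) FRET dyes. Channel activated with 10 μM forskolin plus 20 μM genistein in Cl⁻-free (gluconate) bath; depolarisation from Cl⁻ efflux read on VIPR II.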
Consider `CC1CN(c2ncccc2C(=O)NS(=O)(=O)c2cccc(N3CC[C@@H](NC(=O)OC(C)(C)C)C3)n2)C(C)(C)C1` (stereo partly drawn) [Compound 2537, tert-butyl N-[(3R)-1-[6-[[2-(2,2,4-trimethylpyrrolidin-1-yl)pyridine-3-carbonyl]sulfamoyl]-2-pyridyl]pyrrolidin-3-yl]carbamate], for which the EC30 is 3 to 10 µM.
Still for that read-out and setting: under `CC1CN(c2ncccc2C(=O)NS(=O)(=O)c2cccc(Oc3ccc(-n4ccnc4)cc3)n2)C(C)(C)C1` (stereo not drawn) [Compound 2441, N—[[6-(4-imidazol-1-ylphenoxy)-2-pyridyl]sulfonyl]-2-(2,2,4-trimethylpyrrolidin-1-yl)pyridine-3-carboxamide] stands 3 to 10 µM.
Same read-out and setting: next, `C[C@@H]1CN(c2nc(C3CCCCO3)ccc2C(=O)NS(=O)(=O)c2cccnc2N)C(C)(C)C1` (single isomer, unassigned) [Compound 2672]: below 3 µM; `CC1CN(c2ncccc2C(=O)NS(=O)(=O)c2cccc(OCc3ccccc3)n2)C(C)(C)C1` (stereo not drawn) [Compound 2619, N-[(6-benzyloxy-2-pyridyl)sulfonyl]-2-(2,2,4-trimethylpyrrolidin-1-yl)pyridine-3-carboxamide]: below 3 µM; `COc1cc(C)c(-c2ccc(C(=O)NS(=O)(=O)c3cccnc3N)c(N3C[C@@H](C)CC3(C)C)n2)c(C)c1` [Compound 2607, N-[(2-amino-3-pyridyl)sulfonyl]-6-(4-methoxy-2,6-dimethyl-phenyl)-2-[(4S)-2,2,4-trimethylpyrrolidin-1-yl]pyridine-3-carboxamide]: below 3 µM.
Same read-out and setting: next, `CC1CN(c2ncccc2C(=O)NS(=O)(=O)c2cccc(Nc3c(F)cccc3F)n2)C(C)(C)C1` (stereo not drawn) [Compound 2513, N—[[6-(2,6-difluoroanilino)-2-pyridyl]sulfonyl]-2-(2,2,4-trimethylpyrrolidin-1-yl)pyridine-3-carboxamide]: 3 to 10 µM; `COc1cccc(CNc2cccc(S(=O)(=O)NC(=O)c3cccnc3N3CC(C)CC3(C)C)n2)c1` (stereo not drawn) [Compound 2168, N—[[6-[(3-methoxyphenyl)methylamino]-2-pyridyl]sulfonyl]-2-(2,2,4-trimethylpyrrolidin-1-yl)pyridine-3-carboxamide]: below 3 µM.
Regarding `CC1CN(c2ncccc2C(=O)NS(=O)(=O)c2cccc(Nc3cccc(OC(F)(F)F)c3)n2)C(C)(C)C1` (stereo not drawn) [Compound 2143, N—[[6-[3-(trifluoromethoxy)anilino]-2-pyridyl]sulfonyl]-2-(2,2,4-trimethylpyrrolidin-1-yl)pyridine-3-carboxamide], the concentration for an effect of 30% (EC30) was below 3 µM.
On the same count and under the same terms, under `COc1ccc(-c2ccc(C(=O)NS(=O)(=O)c3cccnc3N)c(N3C[C@@H](C)CC3(C)C)n2)c(F)c1F` [Compound 2302, N-[(2-amino-3-pyridyl)sulfonyl]-6-(2,3-difluoro-4-methoxy-phenyl)-2-[(4S)-2,2,4-trimethylpyrrolidin-1-yl]pyridine-3-carboxamide] stands below 3 µM; under `CC1CN(c2ncccc2C(=O)NS(=O)(=O)c2cccc(OCc3cccc(F)c3)n2)C(C)(C)C1` (stereo not drawn) [Compound 2409, N—[[6-[(3-fluorophenyl)methoxy]-2-pyridyl]sulfonyl]-2-(2,2,4-trimethylpyrrolidin-1-yl)pyridine-3-carboxamide], below 3 µM; under `CC(C)COc1cc(F)cc(-c2ccc(C(=O)NS(=O)(=O)c3cccc(N)n3)c(N3CC(C(F)(F)F)CC3(C)C)n2)c1` (stereo not drawn) [Compound 2573], below 3 µM.
The same measure, in the same setting: next, `Cc1c(F)cccc1-c1ccc(C(=O)NS(=O)(=O)N2CC[C@H](N)C2)c(N2C[C@@H](C)CC2(C)C)n1` [Compound 2199, N-[(3S)-3-aminopyrrolidin-1-yl]sulfonyl-6-(3-fluoro-2-methyl-phenyl)-2-[(4S)-2,2,4-trimethylpyrrolidin-1-yl]pyridine-3-carboxamide]: 3 to 10 µM; `CC1CN(c2ncccc2C(=O)NS(=O)(=O)c2cccc(N3CCc4cc(Cl)ccc43)n2)C(C)(C)C1` (stereo not drawn) [Compound 2385, N—[[6-(5-chloroindolin-1-yl)-2-pyridyl]sulfonyl]-2-(2,2,4-trimethylpyrrolidin-1-yl)pyridine-3-carboxamide]: below 3 µM; `CC1CC=C(c2cnc(N3CC(C)CC3(C)C)c(C(=O)NS(=O)(=O)c3cccc(N)n3)c2)CC1` (stereo not drawn) [Compound 2361, N-[(6-amino-2-pyridyl)sulfonyl]-5-(4-methylcyclohexen-1-yl)-2-(2,2,4-trimethylpyrrolidin-1-yl)pyridine-3-carboxamide]: below 3 µM.
Still for that read-out and setting: next, `Cc1cccc(CNc2cccc(S(=O)(=O)NC(=O)c3cccnc3N3CC(C)CC3(C)C)n2)c1` (stereo not drawn) [Compound 2391, N—[[6-(m-tolylmethylamino)-2-pyridyl]sulfonyl]-2-(2,2,4-trimethylpyrrolidin-1-yl)pyridine-3-carboxamide]: below 3 µM.
As to `CC(C)COc1cc(F)cc(-c2ccc(C(=O)NS(=O)(=O)C3CCCC3)c(N3C[C@@H](C)CC3(C)C)n2)c1` [Compound 2113, N-cyclopentylsulfonyl-6-(3-fluoro-5-isobutoxy-phenyl)-2-[(4S)-2,2,4-trimethylpyrrolidin-1-yl]pyridine-3-carboxamide], the EC30 is below 3 µM.

Still in this test, the particulars now being: Table 3; compounds of Table 1 as modulators of CFTR activity; protocol not stated.
`CC(C)COc1cc(F)cc(-c2ccc(C(=O)NS(=O)(=O)c3cccc(N)n3)c(OC3C(C)CCC3C)n2)c1` (stereo not drawn) [Compound 416, N-[(6-amino-2-pyridyl)sulfonyl]-2-(2,5-dimethylcyclopentoxy)-6-(3-fluoro-5-isobutoxy-phenyl)pyridine-3-carboxamide]: the EC30 result was “+++ (“+++” means <3 uM)”.
`Cc1cc(C)c(Oc2nc(C(C)(C)C)ccc2C(=O)NS(=O)(=O)c2cccn(C)c2=O)c(C)c1` [Compound 667, 6-tert-butyl-N-[(1-methyl-2-oxo-3-pyridyl)sulfonyl]-2-(2,4,6-trimethylphenoxy)pyridine-3-carboxamide]: the concentration for an effect of 30% (EC30) result is on record as “+++ (“+++” means <3 uM)”.
Still for that read-out and setting: next, `Cc1cccc(C)c1Cn1nc(-c2ccccc2OC(F)(F)F)cc1C(=O)NS(=O)(=O)c1ccccc1` [Compound 149, N-(benzenesulfonyl)-2-[(2,6-dimethylphenyl)methyl]-5-[2-(trifluoromethoxy)phenyl]pyrazole-3-carboxamide]: “+++ (“+++” means <3 uM)”; `CC(C)COc1cccc(-c2ccc(C(=O)NS(=O)(=O)c3cccc(N)n3)c(N3CCC(C)CC3)n2)c1` [Compound 777, N-[(6-amino-2-pyridyl)sulfonyl]-6-(3-isobutoxyphenyl)-2-(4-methyl-1-piperidyl)pyridine-3-carboxamide]: “+++ (“+++” means <3 uM)”.
Still for that read-out and setting: next, `COc1ncc(-c2ccc(C(=O)NS(=O)(=O)c3cccc(N)n3)c(Oc3c(C)cc(C)cc3C)n2)cc1C` [Compound 705, N-[(6-amino-2-pyridyl)sulfonyl]-6-(6-methoxy-5-methyl-3-pyridyl)-2-(2,4,6-trimethylphenoxy)pyridine-3-carboxamide]: “+++ (“+++” means <3 uM)”; `Cc1cc(C)c(Oc2nn(C(C)(C)C)cc2C(=O)NS(=O)(=O)c2cccc(N)c2)c(C)c1` [Compound 325, N-(3-aminophenyl)sulfonyl-1-tert-butyl-3-(2,4,6-trimethylphenoxy)pyrazole-4-carboxamide]: “+++ (“+++” means <3 uM)”.
On the same count and under the same terms, under `Cc1cc(C)c(Oc2nc(C(C)(C)C)ccc2C(=O)N[S@](=N)(=O)c2cccc(N)c2)c(C)c1` (single isomer, unassigned) [Compound 53, N-[(3-aminophenyl)sulfonimidoyl]-6-tert-butyl-2-(2,4,6-trimethylphenoxy)pyridine-3-carboxamide] stands “+++ (“+++” means <3 uM)”.
As to `Cc1ccc(Oc2nc(-c3ccccc3)ccc2C(=O)NS(=O)(=O)c2cccc(N)n2)c(C)c1` [Compound 340, N-[(6-amino-2-pyridyl)sulfonyl]-2-(2,4-dimethylphenoxy)-6-phenyl-pyridine-3-carboxamide], the concentration for an effect of 30% (EC30) entry is listed as “+++ (“+++” means <3 uM)”.
On the same count and under the same terms, next, `CCCN(CC1CC1)c1nc(-c2ccc(OC(C)C)nc2)ccc1C(=O)NS(=O)(=O)c1cccc(N)n1` [Compound 500, N-[(6-amino-2-pyridyl)sulfonyl]-2-[cyclopropylmethyl(propyl)amino]-6-(6-isopropoxy-3-pyridyl)pyridine-3-carboxamide]: “+++ (“+++” means <3 uM)”; `COc1ncccc1S(=O)(=O)NC(=O)c1cc2cc(C)ccc2n1Cc1c(C)cc(C)cc1C` [Compound 267, N-[(2-methoxy-3-pyridyl)sulfonyl]-5-methyl-1-[(2,4,6-trimethylphenyl)methyl]indole-2-carboxamide]: “+++ (“+++” means <3 uM)”.
Still for that read-out and setting: under `COc1ncccc1S(=O)(=O)NC(=O)C1(C)c2ccccc2CN1Cc1c(C)cc(C)cc1C` (stereo not drawn) [Compound 765, N-[(2-methoxy-3-pyridyl)sulfonyl]-1-methyl-2-[(2,4,6-trimethylphenyl)methyl]isoindoline-1-carboxamide] stands “++ (“++” means between 3 uM and 10 uM)”; under `CC(C)(C)c1ccc(-c2nc(C(C)(C)C)ccc2C(=O)NS(=O)(=O)c2cccc(N)c2)cc1` [Compound 252, N-(3-aminophenyl)sulfonyl-6-tert-butyl-2-(4-tert-butylphenyl)pyridine-3-carboxamide], “+++ (“+++” means <3 uM)”.
Still for that read-out and setting: under `Cc1cc(C)c(Oc2nc(-c3cc(F)cc(OC(C)C)c3)ccc2C(=O)NS(=O)(=O)c2ccc[nH]c2=O)c(C)c1` [Compound 645, 6-(3-fluoro-5-isopropoxy-phenyl)-N-[(2-oxo-1H-pyridin-3-yl)sulfonyl]-2-(2,4,6-trimethylphenoxy)pyridine-3-carboxamide] stands “++ (“++” means between 3 uM and 10 uM)”; under `CC(C)CN(C)c1ccc(-c2ccc(C(=O)NS(=O)(=O)c3cccc(N)n3)c(N3CC(C)CC3(C)C)n2)cn1` (stereo not drawn) [Compound 412, N-[(6-amino-2-pyridyl)sulfonyl]-6-[6-[isobutyl(methyl)amino]-3-pyridyl]-2-(2,2,4-trimethylpyrrolidin-1-yl)pyridine-3-carboxamide], “+++ (“+++” means <3 uM)”.
